In ChEMBL document CHEMBL4808245, “Cytoprotective agent troxipide-cyanine dye conjugate with cytotoxic and antiproliferative activity in patient-derived glioblastoma cell lines” (Bioorg Med Chem Lett, 2021):
Active and inactive are the calls of the source. No cut-off for these calls is given here.

Tests used:
U-87 MG [1] = assay: Antiproliferative activity against human U-87MG cells assessed as reduction in cell proliferation measured after 48 hrs in presence of TMZ by EdU-incorporation assay; type: functional, cell-based, U-87MG ATCC
KNS-42 [2] = assay: Antagonistic cytotoxicity against human KNS-42 cells assessed as combination index at 25 nM measured after 96 hrs in presence of TMZ by Hoechst staining based analysis; type: functional
U-87 MG [3] = assay: Synergistic cytotoxicity against human U-87MG cells assessed as combination index at 100000 nM measured after 96 hrs by Hoechst staining based analysis; type: functional, U-87MG ATCC
KNS-42 [4] = assay: Antagonistic cytotoxicity against human KNS-42 cells assessed as combination index at 1 nM measured after 96 hrs in presence of TMZ by Hoechst staining based analysis; type: functional
KNS-42 [5] = assay: Synergistic cytotoxicity against human KNS-42 cells assessed as combination index at 4000 nM measured after 96 hrs by Hoechst staining based analysis; type: functional
GBM [6] = assay: Synergistic cytotoxicity against patient derived human GBM cells assessed as combination index at 0.2 nM measured after 96 hrs in presence of TMZ by Hoechst staining based analysis; type: functional
GBM [7] = assay: Synergistic cytotoxicity against patient derived human GBM cells assessed as combination index at 100000 nM measured after 96 hrs in presence of TMZ by Hoechst staining based analysis; type: functional
U-87 MG [8] = assay: Cytotoxicity against human U-87MG cells assessed as reduction in total cell count measured after 96 hrs in presence of TMZ by Hoechst staining analysis; type: functional, cell-based, U-87MG ATCC
U-87 MG [9] = assay: Cytotoxicity against human U-87MG cells assessed as reduction in total cell count measured after 96 hrs by Hoechst staining analysis; type: functional, cell-based, U-87MG ATCC
GBM [10] = assay: Synergistic cytotoxicity against patient derived human GBM cells assessed as combination index at 800 nM measured after 96 hrs in presence of TMZ by Hoechst staining based analysis; type: functional
U-87 MG [11] = assay: Antagonistic cytotoxicity against human U-87MG cells assessed as combination index at 25 nM measured after 96 hrs in presence of TMZ by Hoechst staining based analysis; type: functional, U-87MG ATCC
[12] = Selectivity ratio of EC50 for cytotoxicity against primary brain pericytes (unknown origin) to EC50 for cytotoxicity against patient derived human GBM cells
GBM [13] = assay: Synergistic cytotoxicity against patient derived human GBM cells assessed as combination index at 0.04 nM measured after 96 hrs in presence of TMZ by Hoechst staining based analysis; type: functional
KNS-42 [14] = assay: Cytotoxicity against human KNS-42 cells assessed as reduction in total cell count measured after 96 hrs by Hoechst staining analysis; type: functional, cell-based; details: KNS-42, 96 h
GBM [15] = assay: Synergistic cytotoxicity against patient derived human GBM cells assessed as combination index at 20000 nM measured after 96 hrs in presence of TMZ by Hoechst staining based analysis; type: functional
U-87 MG [16] = assay: Synergistic cytotoxicity against human U-87MG cells assessed as combination index at 800 nM measured after 96 hrs by Hoechst staining based analysis; type: functional, U-87MG ATCC
U-87 MG [17] = assay: Synergistic cytotoxicity against human U-87MG cells assessed as combination index at 5 nM measured after 96 hrs by Hoechst staining based analysis; type: functional, U-87MG ATCC
U-87 MG [18] = assay: Synergistic cytotoxicity against human U-87MG cells assessed as combination index at 20000 nM measured after 96 hrs by Hoechst staining based analysis; type: functional, U-87MG ATCC
U-87 MG [19] = assay: Antiproliferative activity against human U-87MG cells assessed as reduction in cell proliferation measured after 48 hrs by EdU-incorporation assay; type: functional, cell-based, U-87MG ATCC
KNS-42 [20] = assay: Synergistic cytotoxicity against human KNS-42 cells assessed as combination index at 0.2 nM measured after 96 hrs by Hoechst staining based analysis; type: functional
U-87 MG [21] = assay: Synergistic cytotoxicity against human U-87MG cells assessed as combination index at 0.2 nM measured after 96 hrs by Hoechst staining based analysis; type: functional, U-87MG ATCC
U-87 MG [22] = assay: Antagonistic cytotoxicity against human U-87MG cells assessed as combination index at 1 nM measured after 96 hrs in presence of TMZ by Hoechst staining based analysis; type: functional, U-87MG ATCC
GBM [23] = assay: Synergistic cytotoxicity against patient derived human GBM cells assessed as combination index at 125 nM measured after 96 hrs in presence of TMZ by Hoechst staining based analysis; type: functional
[24] = Cytotoxicity against primary brain pericytes (unknown origin); type: cell-based
GBM [25] = assay: Antiproliferative activity against patient derived human GBM cells assessed as reduction in cell proliferation measured after 48 hrs in presence of TMZ by EdU-incorporation assay; type: functional, cell-based
KNS-42 [26] = assay: Synergistic cytotoxicity against human KNS-42 cells assessed as combination index at 800 nM measured after 96 hrs by Hoechst staining based analysis; type: functional
GBM [27] = assay: Synergistic cytotoxicity against patient derived human GBM cells assessed as combination index at 1 nM measured after 96 hrs in presence of TMZ by Hoechst staining based analysis; type: functional
KNS-42 [28] = assay: Synergistic cytotoxicity against human KNS-42 cells assessed as combination index at 20000 nM measured after 96 hrs by Hoechst staining based analysis; type: functional
GBM [29] = assay: Induction of apoptosis in patient derived human GBM cells assessed as increase in cleaved caspase-3 positive cells at IC50; type: functional, cell-based
GBM [30] = assay: Antiproliferative activity against patient derived human GBM cells assessed as reduction in cell proliferation measured after 48 hrs by EdU-incorporation assay; type: functional, cell-based
GBM [31] = assay: Synergistic cytotoxicity against patient derived human GBM cells assessed as combination index at 5 nM measured after 96 hrs in presence of TMZ by Hoechst staining based analysis; type: functional
KNS-42 [32] = assay: Antagonistic cytotoxicity against human KNS-42 cells assessed as combination index at 0.04 nM measured after 96 hrs in presence of TMZ by Hoechst staining based analysis; type: functional
KNS-42 [33] = assay: Synergistic cytotoxicity against human KNS-42 cells assessed as combination index at 125 nM measured after 96 hrs by Hoechst staining based analysis; type: functional
GBM [34] = assay: Synergistic cytotoxicity against patient derived human GBM cells assessed as combination index at 25 nM measured after 96 hrs in presence of TMZ by Hoechst staining based analysis; type: functional
U-87 MG [35] = assay: Synergistic cytotoxicity against human U-87MG cells assessed as combination index at 4000 nM measured after 96 hrs by Hoechst staining based analysis; type: functional, U-87MG ATCC
KNS-42 [36] = assay: Antiproliferative activity against human KNS-42 cells assessed as reduction in cell proliferation measured after 48 hrs by EdU-incorporation assay; type: functional, cell-based; details: KNS-42, 48 h
U-87 MG [37] = assay: Antagonistic cytotoxicity against human U-87MG cells assessed as combination index at 0.04 nM measured after 96 hrs in presence of TMZ by Hoechst staining based analysis; type: functional, U-87MG ATCC
U-87 MG [38] = assay: Synergistic cytotoxicity against human U-87MG cells assessed as combination index at 125 nM measured after 96 hrs by Hoechst staining based analysis; type: functional, U-87MG ATCC
GBM [39] = assay: Synergistic cytotoxicity against patient derived human GBM cells assessed as combination index at 4000 nM measured after 96 hrs in presence of TMZ by Hoechst staining based analysis; type: functional
GBM [40] = assay: Cytotoxicity against patient derived human GBM cells assessed as reduction in total cell count measured after 96 hrs in presence of TMZ by Hoechst staining analysis; type: functional, cell-based
KNS-42 [41] = assay: Synergistic cytotoxicity against human KNS-42 cells assessed as combination index at 5 nM measured after 96 hrs by Hoechst staining based analysis; type: functional
KNS-42 [42] = assay: Antiproliferative activity against human KNS-42 cells assessed as reduction in cell proliferation measured after 48 hrs in presence of TMZ by EdU-incorporation assay; type: functional, cell-based; details: KNS-42, 48 h
KNS-42 [43] = assay: Cytotoxicity against human KNS-42 cells assessed as reduction in total cell count measured after 96 hrs in presence of TMZ by Hoechst staining based analysis; type: functional; details: KNS-42, 96 h
KNS-42 [44] = assay: Synergistic cytotoxicity against human KNS-42 cells assessed as combination index at 100000 nM measured after 96 hrs by Hoechst staining based analysis; type: functional
GBM [45] = assay: Cytotoxicity against patient derived human GBM cells assessed as reduction in total cell count measured after 96 hrs by Hoechst staining analysis; type: functional, cell-based

SMILES: COc1cc(C(=O)NC2CCCN(C(=O)CCCCCN3/C(=C/C=C4\CCCC(/C=C/C5=[N+](CCCCCC(=O)N6CCCC(NC(=O)c7cc(OC)c(OC)c(OC)c7)C6)c6ccccc6C5(C)C)=C4Cl)C(C)(C)c4ccccc43)C2)cc(OC)c1OC.[Br-] (stereo not given)
- IC50 (U-87 MG [1]): 194 nM
- CI (KNS-42 [2]): 3.837
- CI (U-87 MG [3]): 0.05
- CI (KNS-42 [4]): 3.406
- CI (KNS-42 [5]): 0.116
- CI (GBM [6]): 0.025
- CI (GBM [7]): 0.248
- EC50 (U-87 MG [8]): 108 nM
- EC50 (U-87 MG [9]): 394 nM
- CI (GBM [10]): 0.287
- CI (U-87 MG [11]): 3.837
- Ratio EC50 [12]: 19
- CI (GBM [13]): 0.323
- EC50 (KNS-42 [14]): 394 nM
- CI (GBM [15]): 0.526
- CI (U-87 MG [16]): 0.067
- CI (U-87 MG [17]): 0.134
- CI (U-87 MG [18]): 0.052
- IC50 (U-87 MG [19]): 504 nM
- CI (KNS-42 [20]): 0.016
- CI (U-87 MG [21]): 0.016
- CI (U-87 MG [22]): 3.406
- CI (GBM [23]): 0.571
- EC50 [24]: 3.6 µM
- IC50 (GBM [25]): 110 nM
- CI (KNS-42 [26]): 0.067
- CI (GBM [27]): 0.301
- CI (KNS-42 [28]): 0.052
- Activity (GBM [29]): Active
- IC50 (GBM [30]): 164 nM
- CI (GBM [31]): 0.551
- CI (KNS-42 [32]): 5.672
- CI (KNS-42 [33]): 0.268
- CI (GBM [34]): 0.506
- CI (U-87 MG [35]): 0.116
- IC50 (KNS-42 [36]): 504 nM
- CI (U-87 MG [37]): 5.672
- CI (U-87 MG [38]): 0.268
- CI (GBM [39]): 0.536
- EC50 (GBM [40]): 90 nM
- CI (KNS-42 [41]): 0.134
- IC50 (KNS-42 [42]): 194 nM
- EC50 (KNS-42 [43]): 108 nM
- CI (KNS-42 [44]): 0.05
- EC50 (GBM [45]): 211 nM
